Legend:
[1] = compound: C1CN(CCC1(C(=O)N[C@@H](CCO)C2=CC=C(C=C2)Cl)N)C3=NC=NC4=C3C=CN4 [Capivasertib]; conditions: max 10 µM
Outline: (§1)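 Cancer cell lines were seeded into 1536-well plates in 7.5 μl medium (DMEM/F12 or RPMI, 10% FBS), held 24 hours at 37°C and 5% CO2, and dosed for 72 hours with final DMSO typically 0.2%. Luminescence from CellTiter-Glo 2.0, scaled between blank-well and DMSO-well means, served as viability. The single-agent IC50 was obtained from dose-response fits with a non-linear mixed effects model, each fit being a two-parameter logistic curve.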

[2] = compound: C=CCn1c(=O)c2cnc(Nc3ccc(N4CCN(C)CC4)cc3)nc2n1-c1cccc(C(C)(C)O)n1 [AZD1775]
Outline: as §1

[3] = compound: CC(=O)Nc1cccc(-n2c(=O)n(C3CC3)c(=O)c3c(Nc4ccc(I)cc4F)n(C)c(=O)c(C)c32)c1 [Trametinib]; conditions: max 1 µM
Outline: as §1

[4] = compound: CC(=O)c1c(C)c2cnc(Nc3ccc(N4CCNCC4)cn3)nc2n(C2CCCC2)c1=O [Palbociclib]; conditions: max 10 µM
Outline: as §1

[5] = compound: CC(C)n1c(=O)n(C)c2cnc3cc(F)c(-c4ccc(OCCCN5CCCCC5)nc4)cc3c21 [AZD1390]; conditions: max 0.3 µM
Outline: as §1

[6] = compound: CC1(C)CCC(CN2CCN(c3ccc(C(=O)NS(=O)(=O)c4ccc(NCC5CCOCC5)c([N+](=O)[O-])c4)c(Oc4cnc5[nH]ccc5c4)c3)CC2)=C(c2ccc(Cl)cc2)C1 [Venetoclax]; conditions: max 1 µM
Outline: as §1

[7] = compound: CC1=C(C(=CC=C1)Cl)NC(=O)C2=CN=C(S2)NC3=CC(=NC(=N3)C)N4CCN(CC4)CCO [Dasatinib]; conditions: max 2 µM
Outline: as §1

[8] = compound: CC1=CN2[C@@H](C1)C=NC3=CC(=C(C=C3C2=O)OC)OCCCCCOC4=C(C=C5C(=C4)N=C[C@@H]6CC(=CN6C5=O)C)OC [SG3199]; conditions: max 0.001 µM
Outline: as §1

[9] = compound: CCN(CCO)CCCOc1ccc2c(Nc3cc(CC(=O)Nc4cccc(F)c4)[nH]n3)ncnc2c1 [AZD2811]; conditions: max 1 µM
Outline: as §1

[10] = compound: CCc1c2c(nc3ccc(O)cc13)-c1cc3c(c(=O)n1C2)COC(=O)[C@]3(O)CC [SN-38]; conditions: max 0.3 µM
Outline: as §1

[11] = compound: CN(C)CCCOc1ccc(-c2ccc3ncc4c(c3c2)n(C2CCOCC2)c(=O)n4C)cn1 [AZD0156]
Outline: as §1

[12] = compound: CN(CC[C@H](CSC1=CC=CC=C1)NC2=C(C=C(C=C2)S(=O)(=O)NC(=O)C3=CC=C(C=C3)N4CCC(CC4)[C@H](C5=CC=CC=C5C6=CC=C(C=C6)Cl)O)S(=O)(=O)C(F)(F)F)CCO [AZD4320]; conditions: max 1 µM
Outline: as §1

[13] = compound: COc1cc(Nc2ncc3c(n2)-c2ccc(Cl)cc2C(c2c(F)cccc2OC)=NC3)ccc1C(=O)O [Alisertib]; conditions: max 10 µM
Outline: as §1

[14] = compound: COc1cc2ncnc(Nc3ccc(F)c(Cl)c3)c2cc1OCCCN1CCOCC1 [Gefitinib]; conditions: max 10 µM
Outline: as §1

[15] = compound: COc1cccc(OCCCN)c1-c1cc(Nc2cnc(C#N)cn2)n[nH]1 [Prexasertib]; conditions: max 1 µM
Outline: as §1

[16] = compound: COc1cccc2c1C(=O)c1c(O)c3c(c(O)c1C2=O)C[C@@](O)(C(=O)CO)C[C@@H]3O[C@H]1C[C@H](N)[C@H](O)[C@H](C)O1 [Doxorubicin]; conditions: max 1 µM
Outline: as §1

[17] = compound: COc1nnc2ccc(N3CCC(c4ccc(OCCN5CCN(C)C(=O)[C@H]5C)cc4)CC3)nn12 [AZD5153]; conditions: max 1 µM
Outline: as §1

[18] = compound: CS(=O)(=O)CCNCc1ccc(-c2ccc3ncnc(Nc4ccc(OCc5cccc(F)c5)c(Cl)c4)c3c2)o1 [Lapatinib]; conditions: max 10 µM
Outline: as §1

[19] = compound: C[C@@H](Nc1cc(F)cc(F)c1)c1cc(C(=O)N(C)C)cc2c(=O)cc(N3CCOCC3)oc12 [AZD8186]; conditions: max 3 µM
Outline: as §1

[20] = compound: C[C@@H](Oc1cc(-c2cnn(C3CCNCC3)c2)cnc1N)c1c(Cl)ccc(F)c1Cl [Crizotinib]; conditions: max 10 µM
Outline: as §1

[21] = compound: C[C@@H](c1ccc2nccn2c1)n1nnc2ncc(-c3cnn(C)c3)nc21 [Savolitinib]; conditions: max 1 µM
Outline: as §1

[22] = compound: C[C@@H]1COCCN1C2=NC(=NC(=C2)C3(CC3)[S@](=N)(=O)C)C4=C5C=CNC5=NC=C4 [AZD6738]; conditions: max 10 µM
Outline: as §1

[23] = compound: Cc1c2c(nn1C)CSCc1cc(n(C)n1)CSc1cc(c3ccccc3c1)OCCCc1c(C(=O)O)n(C)c3c-2c(Cl)ccc13 [AZD5991]; conditions: max 1 µM
Outline: as §1

[24] = compound: Cc1cc2ncnn2cc1Nc1ncc2c(n1)n(C1CCOCC1)c(=O)n2C [AZD7648]; conditions: max 10 µM
Outline: as §1

[25] = compound: Cc1nc(-c2cn3c(n2)-c2ccc(-c4cnn(C(C)(C)C(N)=O)c4)cc2OCC3)n(C(C)C)n1 [Taselisib]; conditions: max 10 µM
Outline: as §1

[26] = compound: Cn1cnc2c(F)c(Nc3ccc(Br)cc3Cl)c(C(=O)NOCCO)cc21 [Selumetinib]; conditions: max 10 µM
Outline: as §1

[27] = compound: O=C(c1cc(Cc2n[nH]c(=O)c3ccccc23)ccc1F)N1CCN(C(=O)C2CC2)CC1 [Olaparib]; conditions: max 10 µM
Outline: as §1

| Cell Line | IC50, cell viability 72 h [1] [nM] | IC50, cell viability 72 h ([2]; max 1 µM) [nM] | IC50, cell viability 72 h [3] [nM] | IC50, cell viability 72 h [4] [nM] | IC50, cell viability 72 h [5] [nM] | IC50, cell viability 72 h [6] [nM] | IC50, cell viability 72 h [7] [nM] | IC50, cell viability 72 h [8] [nM] | IC50, cell viability 72 h [9] [nM] | IC50, cell viability 72 h [10] [nM] | IC50, cell viability 72 h ([11]; max 1 µM) [nM] | IC50, cell viability 72 h [12] [nM] | IC50, cell viability 72 h [13] [nM] | IC50, cell viability 72 h [14] [nM] | IC50, cell viability 72 h [15] [nM] | IC50, cell viability 72 h [16] [nM] | IC50, cell viability 72 h [17] [nM] | IC50, cell viability 72 h [18] [nM] | IC50, cell viability 72 h [19] [nM] | IC50, cell viability 72 h [20] [nM] | IC50, cell viability 72 h [21] [nM] | IC50, cell viability 72 h [22] [nM] | IC50, cell viability 72 h [23] [nM] | IC50, cell viability 72 h [24] [nM] | IC50, cell viability 72 h [25] [nM] | IC50, cell viability 72 h [26] [nM] | IC50, cell viability 72 h [27] [nM] | IC50, cell viability 72 h ([2]; max 3 µM) [nM] | IC50, cell viability 72 h ([11]; max 3 µM) [nM] |
| --- | --- | --- | --- | --- | --- | --- | --- | --- | --- | --- | --- | --- | --- | --- | --- | --- | --- | --- | --- | --- | --- | --- | --- | --- | --- | --- | --- | --- | --- |
| SNU-61 (Colorectal Carcinoma) | > 10000 | > 1000 | 529 | > 10000 | > 300 | > 1000 | > 2000 | > 1 | > 1000 | > 300 | > 1000 | > 1000 | > 10000 | > 10000 | > 1000 | > 1000 | > 1000 | > 10000 | > 3000 | > 10000 | > 1000 | > 10000 | > 1000 | > 10000 | > 10000 | > 10000 | > 10000 | – | – |
| MES-SA (Other Solid Carcinomas) | > 10000 | – | > 1000 | > 10000 | > 300 | > 1000 | > 2000 | > 1 | > 1000 | 28.2 | – | > 1000 | 856 | > 10000 | 80.1 | 268 | > 1000 | > 10000 | > 3000 | > 10000 | > 1000 | > 10000 | > 1000 | > 10000 | 1180 | > 10000 | > 10000 | 707 | > 3000 |
| EFM-192A (Breast Carcinoma) | > 10000 | – | > 1000 | > 10000 | > 300 | > 1000 | > 2000 | > 1 | > 1000 | > 300 | – | > 1000 | > 10000 | > 10000 | > 1000 | > 1000 | > 1000 | 1360 | > 3000 | > 10000 | > 1000 | > 10000 | 706 | > 10000 | 475 | > 10000 | > 10000 | > 3000 | > 3000 |
